Assay results from PubChem BioAssay (NCI).
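Grown in 96-well plates, cells were treated for 48 hours with each compound at five concentrations. Insufficient inhibition: endpoint recorded as highest concentration tested. GI50 marks 50% less growth. TGI: total growth inhibition.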

Legend:
Assay in all cases: inhibition of tumour cell growth, NCI panel, 48 h
HCT-116 colon = system: HCT-116 colon
OVCAR-5 ovarian = system: OVCAR-5 ovarian
SF-268 CNS = system: SF-268 CNS
EKVX NSCLC = system: EKVX NSCLC
HOP-62 NSCLC = system: HOP-62 NSCLC
SF-295 CNS = system: SF-295 CNS
UACC-62 melanoma = system: UACC-62 melanoma
LOX IMVI melanoma = system: LOX IMVI melanoma
COLO 205 colon = system: COLO 205 colon
HOP-92 NSCLC = system: HOP-92 NSCLC

SMILES	TGI (HCT-116 colon) [µM]	TGI (OVCAR-5 ovarian) [µM]	TGI (SF-268 CNS) [µM]	TGI (EKVX NSCLC) [µM]	TGI (HOP-62 NSCLC) [µM]	TGI (SF-295 CNS) [µM]	TGI (UACC-62 melanoma) [µM]	TGI (LOX IMVI melanoma) [µM]	GI50 (HCT-116 colon) [µM]	GI50 (COLO 205 colon) [µM]	TGI (COLO 205 colon) [µM]	GI50 (OVCAR-5 ovarian) [µM]	GI50 (SF-268 CNS) [µM]	GI50 (EKVX NSCLC) [µM]	GI50 (HOP-62 NSCLC) [µM]	GI50 (SF-295 CNS) [µM]	GI50 (UACC-62 melanoma) [µM]	GI50 (LOX IMVI melanoma) [µM]	TGI (HOP-92 NSCLC) [µM]	GI50 (HOP-92 NSCLC) [µM]
CSc1ccc(Cc2cc(C(C)(C)C)cc(C(C)(C)C)c2O)cc1	22.7	13.2	29.7	32.1	35	31.6	29.2	22.4	–	–	–	–	–	–	–	–	–	–	–	–
NC(CCl)=NCC12CC3CC(CC(C3)C1)C2	2.56	11.1	12.1	21.1	11.4	16.2	4.08	2.67	0.41	1.15	3.19	3.73	1.9	2.23	0.796	2.29	0.918	0.805	–	–
CC1=NC(C)=C(/C(C)=N/NC(=O)c2ccccc2O)C(C)/C1=C(/C)NNC(=O)c1ccccc1O (configuration not stated)	48.3	92.1	> 100	48.4	> 100	–	26.3	51.7	–	–	–	–	–	–	–	–	–	–	85.9	–
Oc1ccc(O)c(-n2cccn2)c1	–	> 100	> 100	> 100	> 100	> 100	> 100	> 100	–	–	46.2	–	–	–	–	–	–	–	93.2	–
CCCCSC1CCSc2c1ccc1ccccc21 (configuration not stated)	> 100	> 100	–	–	> 100	> 100	> 100	–	–	–	> 100	–	–	–	–	–	–	–	> 100	–
COc1ccc(C2=NN(C(C)=O)c3nc4ccccc4nc3O2)cc1	> 100	–	> 100	> 100	64	> 100	> 100	–	–	–	> 100	–	–	–	–	–	–	–	62.5	–
O=C(NC1CCCCC1)NC12CC3CC(CC(F)(C3)C1)C2	> 100	> 100	–	> 100	> 100	–	> 100	> 100	–	–	> 100	–	–	–	–	–	–	–	> 100	–
CC(=O)NNc1ncc(C(=O)/C=C/c2ccccc2C)s1	–	> 100	> 100	> 100	> 100	> 100	> 100	> 100	–	–	> 100	–	–	–	–	–	–	–	> 100	–
Cc1ccc([N+](=O)[O-])cc1NC(=O)C(=O)Cc1nc2ccc(C(=O)c3ccccc3)cc2[nH]c1=O	> 100	–	–	> 100	> 100	> 100	> 100	> 100	–	–	> 100	–	–	–	–	–	–	–	> 100	–
C=C1C2CC(OC(C)=O)C3(C)C(c4ccoc4)OC(=O)[C@@H](O)[C@]13OC1C[C@H](OC(C)=O)C(C)(C)[C@H](C(O)C(=O)OC)[C@]12C (some centres not stated)	> 100	–	–	> 100	–	> 100	> 100	> 100	–	–	> 100	–	–	–	–	–	–	–	57.6	–
Cc1cc(C)c([I+]c2c(C)cc(C)cc2C)c(C)c1	1.35	2.09	2.23	–	2.16	2.18	1.5	–	0.348	0.342	1.3	0.781	0.615	–	0.841	0.591	0.339	–	1.53	0.267
O=C(O)C(Cc1ccccc1)N=Cc1nc(-c2ccccc2)oc1O (configuration not stated)	> 100	> 100	> 100	> 100	> 100	> 100	> 100	> 100	–	–	> 100	–	–	–	–	–	–	–	–	–
CC(=O)N(N=O)c1ccc(N(N=O)C(C)=O)cc1	> 100	> 100	> 100	–	> 100	> 100	> 100	> 100	–	–	> 100	–	–	–	–	–	–	–	> 100	–
O=C(/C=C/c1ccc(-c2ccccc2)cc1)c1ccccc1	30.2	41	70.1	50.8	–	> 100	50	29.2	–	–	52.7	–	–	–	–	–	–	–	51.7	–
Oc1c(CN2CCCCC2)ccc2cccnc12	9.18	76.9	> 100	37.4	54.3	15.4	51.4	17.3	2.73	3.64	15	5.23	6.07	3.26	3.75	2.69	3.95	3.6	–	–
O=C(Nc1ccc(Cl)cc1)c1cc(NCc2cc(O)ccc2O)ccc1O	18.2	19	14	23.7	51.7	36.3	5.3	23.1	3.48	5.29	28.5	4.77	3.04	5.5	22	15.4	2.06	4.1	–	–
CC(=O)CCc1ccc(Oc2c3ccccc3nc3occc23)cc1	79.5	38.9	38.1	–	35.4	40.9	–	41.8	19.1	16.8	33.1	19	18.9	–	20.1	15.7	–	14.8	–	–
CSc1nc2c(nc(N)n2C2OC(CO)C(O)C(O)C2O)c(=O)[nH]1 (configuration not stated)	> 100	–	> 100	> 100	> 100	> 100	> 100	> 100	–	–	> 100	–	–	–	–	–	–	–	> 100	–
Cn1c(=O)nc2n(-c3ccc(F)c(F)c3)c3ccccc3nc-2c1=O	26.5	37.5	> 100	17.7	> 100	32.4	5.47	–	–	–	15.7	–	–	–	–	–	–	–	–	–
CON1C(=O)C2(CCCCC2)C(=O)C12C=CC(C)CC2 (configuration not stated)	–	–	> 100	> 100	> 100	> 100	> 100	> 100	–	–	> 100	–	–	–	–	–	–	–	–	–
